# pIC50: −log10 of the molar value.
# Key:
# [1] = test system: twelve beneficial-commensal gut bacteria; assay: Activity spectrum on twelve beneficial-commensal gut bacteria at 200 μM; assay type: cell-based
# Procedure: (§1) SM activity spectrum: The 128 selected SMs were tested for antimicrobial effects on nine different serotypes frequently implicated in foodborne gastroenteritis outbreaks. Later in the study, the four best SMs were tested against twelve beneficial/commensal gut bacteria. Both screens were performed at 200 μM as described in the primary screening. Growth conditions for each strain are described in Table 1.
# [2] = test system: Avian Pathogenic E. coli (O1, O2, O8, O15, O18, O35, O78, O109, and O115); assay: Activity on avian pathogens at 200 μM, Avian Pathogenic E. coli; assay type: cell-based, Escherichia coli
# Procedure: (§2) FIGS. 1(A-E). Selection of potent Salmonella growth inhibitors. FIG. 1A: High-throughput screening of 4182 SMs against S. typhimurium WT at 200 μM. Negative value: growth inhibition; Positive value: growth stimulation compared to S. typhimurium growth not treated. The black line represents growth inhibition caused by 2% DMSO. FIG. 1B: Activity of 19 S. typhimurium growth inhibitors against additional Salmonella serotypes. Light grey cells: total growth inhibition; dark grey cells: bacterial growth observed; black cells: not determined. FIG. 1C: Dose-response assays of the selected 19 SMs against S. typhimurium WT. […] The black line represents a cut off of nine serotypes killed per SM. FIG. 1E: Activity spectra of the selected four SMs at 200 μM each on several avian-pathogens (Campylobacter jejuni, Escherichia coli APEC, and Mycoplasma gallisepticum) and beneficial gut bacteria (remaining species). E. coli APEC refers to Avian Pathogenic E. coli and includes E. coli O1, O2, O8, O15, O18, O35, O78, O109, and O115. Light grey cells: cidal effect; dark grey cells: bacterial growth observed. Left side: phylogenetic tree based on NCBI taxonomic ID built with PhyloT software.
# (§3) The selected four SMs were tested on twelve beneficial-commensal gut bacteria at 200 μM (FIG. 1E). […] These four SMs were also growth inhibitors of other avian pathogens at 200 μM (unpublished data, FIG. 1E). […]
# [3] = test system: C. clostridioforme; assay: Activity spectrum at 200 μM, C. clostridioforme; assay type: cell-based, Clostridium clostridioforme
# Procedure: as §1
# [4] = test system: C. jejuni 81-176; assay: Activity on avian pathogens at 200 μM, C. jejuni; assay type: cell-based, Campylobacter jejuni
# Procedure: as §2, §3
# [5] = test system: sheep red blood cells; assay: Hemolytic activity in sheep RBCs; assay type: cell-based; details: 200 μM, one-hour treatment
# Procedure: Briefly, 200 μl of 10% sheep red blood cells (RBCs; LAMPIRE Biological Laboratories, Pipersville, PA) suspension was incubated with 1 μl of SMs (200 μM) for one hour at 37° C. in a sterile, non-treated, flat bottom plate 96-well. After incubation, the plate was centrifuged at 4000 rpm for 5 min at 4° C., then placed on ice for five min. 100 μL of the supernatant was transferred into a new sterile, treated, flat bottom 96-well plate, and the OD was measured at 540 nm. For this experiment, 2% DMSO (negative control) and 0.1% Triton-100X (positive control) were used. % Hemolysis=(OD540 SM−OD540 DMSO)/(OD540 1× triton−OD540 PBS)×100. Similar experiment was performed with chicken RBCs (OARDC, Ohio).
# [6] = test system: S. typhimurium WT internalized in HD11 cells; assay: S. typhimurium intracellular survival in infected HD11 cells; assay type: cell-based; details: Salmonella enterica
# Procedure: Effect of the four SMs on S. typhimurium intracellular survival in cells lines: The ability of four SMs to clear S. typhimurium WT […] was evaluated using three cell lines (Caco-2 cells, HD11, and THP-1 cells). The Salmonella intracellular survival as assessed as described (13). A multiplicity of infection “MOI” of 10 was used. Infected cells were treated with 1 μl of SMs (final concentration ranged between 100 μM and 6.25 μM) at 37° C. for 24 hrs in humidified, 5% CO2 incubator. Following incubation, cells were washed once with 150 μl of 1×PBS, lysed with 0.1% Triton-100X, serial ten-fold diluted in 1×PBS, and plated on agar plate. Plates were incubated at 37° C. for 24 hrs to determine the intracellular survival. Cells not infected and not treated, and cells infected and treated with 2% DMSO were used as controls.
# [7] = test system: biofilm-protected S. typhimurium WT; assay: MBEC-HTP assay on biofilm-protected S. typhimurium; assay type: cell-based, Salmonella enterica subsp. enterica serovar Typhimurium LT2; details: 18 hrs incubation, 0.2×MBC to 4×MBC
# Procedure: Antimicrobial susceptibility testing on biofilm-protected S. typhimurium using the MBEC™-HTP assay: The antimicrobial efficacy of the four SMs was tested once the S. Typhimurium WT was protected by the […] biofilm matrix. The experiment was performed as described by the manufacturer (innovotech.ca/MBEC_HTPInstructions_Rev1.pdf). Briefly, 150 μl of an overnight suspension of S. typhimurium WT normalized at 0.05 OD600 in LB medium was transferred into each well of a sterile, non-treated, flat bottom 96-wells plate. The plate was covered using the lid containing the pegs (innovotech; 19111), sealed with parafilm, and incubated for 36 hrs at 37° C. […] The plate was incubated for 18 hrs at 37° C., 110 rpm in the dark. After incubation, the lid was transferred into a new 96-wells plate containing 200 μl of sterile water and sonicated for 60 min at room temperature (Aquasonic model 50HT, VWR). Then the supernatant was ten-fold serial diluted, plated in agar plate, and incubated at 37° C. for 36 hrs. The lowest SM concentration giving a complete clearance was considered as the minimum biofilm eradication concentration (MBEC).
# [8] = test system: B. thetaiolaomicron; assay: Activity spectrum at 200 μM, B. thetaiotaomicron; assay type: cell-based
# Procedure: as §1
# [9] = test system: B. adolescentis; assay: Activity spectrum at 200 μM, B. adolescentis; assay type: cell-based, Bifidobacterium adolescentis
# Procedure: as §1
# [10] = test system: B. longum; assay: Activity spectrum at 200 μM, B. longum; assay type: cell-based, Bifidobacterium longum
# Procedure: as §1
# [11] = test system: E. faecalis; assay: Activity spectrum at 200 μM, E. faecalis; assay type: cell-based, Enterococcus faecalis
# Procedure: as §1
# [12] = test system: L. brevis; assay: Activity spectrum at 200 μM, L. brevis; assay type: cell-based, Lactobacillus brevis
# Procedure: as §1
# [13] = test system: L. rhamnosus GG; assay: Activity spectrum at 200 μM, L. rhamnosus GG; assay type: cell-based, Lactobacillus rhamnosus
# Procedure: as §1
# [14] = test system: PhoP regulon in S. typhimurium; details: four HTS, PubChem AID #1863, #1981, #2253, #2401; cited from earlier work
smiles,measurement,setting,value
"CCCCCCCCCCCCCCCC[n+]1ccn(CC#N)c1.[Cl-] [SM3, 1-(cyanomethyl)-3-hexadecyl-1H-imidazol-3-ium chloride]",activity on twelve beneficial-commensal gut bacteria,[1],killing all twelve strains tested
same,effect against Avian Pathogenic E. coli,[2],lethal
"CC1CCC(C(C)C)C(OC(=O)Cn2c[n+](CC(=O)OC3CC(C)CCC3C(C)C)c3ccccc32)C1.[Cl-] (stereo not shown) [SM1, 1,3-bis{2-[(2-isopropyl-5-methylcyclohexyl)oxy]-2-oxoethyl}-1H-3,1-benzimidazol-3-ium chloride]",growth effect on C. clostridioforme,[3],no growth inhibition effect
same,effect against C. jejuni 81-176,[4],bactericidal effects
same,hemolytic activity in sheep RBCs,[5],> 50%
same,pIC50,"[6]; TYPHIMURIUM, HD11, read-out: IC 50% (μm), HD11 cells",> 5.20
same,MBC,"[6]; S. Typhimurium-infected HD11 cells, 24 hrs treatment",12.5 µM
"CCCCCCCCCCCCCCCCn1c[n+](C)c2ccccc21.[Br-] [SM4, 1-hexadecyl-3-methyl-1H-3,1-benzimidazol-3-ium bromide]",concentration killing biofilm-protected Salmonella,[7],0.6 ×MBC
same,activity on twelve beneficial-commensal gut bacteria,[1],killing all twelve strains tested
same,effect against Avian Pathogenic E. coli,[2],lethal
"CCOc1cc(/C=N/N=C(N)N)ccc1OCc1ccc(Cl)cc1 [SM5, N″-{4-[(4-chlorobenzyl)oxy]-3-ethoxybenzylidene}carbonohydrazonic diamide]",concentration killing biofilm-protected Salmonella,[7],0.4 ×MBC
same,growth effect on B. thetaiolaomicron,[8],no effect
same,growth effect on B. adolescentis,[9],no effect
same,growth effect on B. longum,[10],no effect
same,growth effect on E. faecalis,[11],no effect
same,growth effect on L. brevis,[12],no effect
same,growth effect on L. rhamnosus GG,[13],no effect
same,hemolytic activity in sheep RBCs,[5],lower than 1%
same,inhibition of the PhoP regulon in S. typhimurium,[14],direct or indirect inhibitor

# Reference: patent publication US12161630B2, “Methods to control infection using new generation small molecule growth inhibitors” (priority 2017, dated 2024)
